From patent publication US7297704B2, “Cycloalkyfused indole, benzothiophene, benzofuran and idene derivatives” (Wyeth, priority 2005, dated 2007)

Columns and labels:
[1] = target: T1, Human 5-HT1A Receptor (Homo sapiens, UniProt P08908); test: 8-OH-DPAT binding, human 5-HT1A receptor cell line; conditions: stably transfected CHO cells, 8-OH-DPAT ligand 1.5 nM; read-out: h5-HT1A Affinity, Ki
T1 construct: expressed in transfected cells; host or cells: CHO cells
T1 sequence (P08908 1-422): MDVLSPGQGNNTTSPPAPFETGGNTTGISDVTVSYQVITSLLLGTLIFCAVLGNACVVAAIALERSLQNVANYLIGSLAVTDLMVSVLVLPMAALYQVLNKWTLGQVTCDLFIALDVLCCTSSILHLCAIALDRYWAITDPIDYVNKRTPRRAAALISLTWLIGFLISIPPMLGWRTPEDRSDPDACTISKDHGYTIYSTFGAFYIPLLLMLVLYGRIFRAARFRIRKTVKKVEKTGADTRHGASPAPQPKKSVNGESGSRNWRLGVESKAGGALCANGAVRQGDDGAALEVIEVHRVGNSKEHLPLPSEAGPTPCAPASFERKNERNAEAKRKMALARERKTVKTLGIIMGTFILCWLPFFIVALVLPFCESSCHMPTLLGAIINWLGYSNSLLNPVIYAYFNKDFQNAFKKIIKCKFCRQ
Description: Stably transfected CHO cells were grown in DMEM containing 10% heat inactivated FBS and non-essential amino acids. Cells were scraped off the plate, transferred to centrifuge tubes, and washed twice by centrifugation (2000 rpm for 10 min., 4° C.) in buffer (50 mM Tris, pH 7.5). The resulting pellets were aliquoted and placed at −80° C. On day of assay, the cells were thawed on ice, and resuspended in buffer. The binding assay was performed in a 96 well microtiter plate in a total volume of […]. Non-specific binding was determined in the presence of […] 5HT; final ligand concentration was 1.5 nM. Following a 30 min. incubation at room temperature, the reaction was terminated by the addition of ice cold buffer and rapid filtration through a GF/B filter presoaked for 30 min. in 0.5% PEI. Compounds were initially tested in a single point assay to determine percent inhibition at […]. Subsequently, Ki values were determined for compounds defined to be active. Percent inhibition Ki was determined by RFComp (Lundon Software), with Serotonin 8-OH-DPAT as the reference compounds.

[2] = target: T2, serotonin transporter (Rattus norvegicus, UniProt P31652); test: 3H-paroxetine binding to the serotonin transporter, rat frontal cortical membranes; conditions: values printed in parentheses, 3H-paroxetine 0.1 nM, read-out: rb-5-HH-T, (IC50)
T2 construct: frontal cortical membranes prepared from male S.D. rats; from tissue; host or cells: rat frontal cortex membranes (male Sprague-Dawley)
Description: A protocol similar to that used by Cheetham et al. (Neuropharmacol. 32:737, 1993) was used to determine the affinity of compounds for the serotonin transporter. Briefly, frontal cortical membranes prepared from male S.D. rats were incubated with ^3H-paroxetine (0.1 nM) for 60 min at 25° C. All tubes also contained either vehicle, test compound (one to eight concentrations), or a saturating concentration of fluoxetine (10 μM) to define […]. All reactions are terminated by the addition of ice cold Tris buffer followed by rapid filtration using a Tom Tech filtration device to separate bound from free ^3H-paroxetine. Bound radioactivity was quantitated using a Wallac 1205 Beta Plate® counter. Nonlinear regression analysis was used to determine IC50 values which were converted to Ki values using the method of Cheng and Prusoff (Biochem. Pharmacol. 22: 3099, 1973); […].

[3] = target: T1, Human 5-HT1A Receptor; test: cAMP RIA in human 5-HT1A receptor cell line; type: cell-based; conditions: superscript b; reversal of agonist activity, CHO cells; read-out: c-AMP, (IC50)^b
Description: Stably transfected CHO cells were grown in DMEM containing 10% heat inactivated FBS and non-essential amino acids. The cells were plated at a density of 10^6 cells per well in a 96 well plate and incubated for 2 days in a CO2 incubator. On the second day, the media was replaced with 0.1 ml Krebs and incubated 15 minutes at 37° C. The media was then replaced with Krebs buffer containing 500 uM IBMX and incubated 5 minutes at 37° C. Wells were treated with forskolin (1 uM final conc) followed immediately by test compound (0.1 and 1 uM for initial screen) and incubated for an additional 10 min at 37° C. Reaction was terminated by removal of the media and addition of 0.5 ml ice cold assay buffer (supplied in RIA kit). Plates are stored at −20° C. prior to assessment of cAMP formation by RIA. Compounds shown to have no agonist activities were further analyzed for ability to reverse agonist activity. In separate experiments, 6 concentrations of antagonist were preincubated for 20 min prior to the addition of agonist and forskolin. Cells were harvested as described. The cAMP kit is supplied by Amersham and the RIA is performed as per kit instructions. In the initial screen, percent inhibition of forskolin stimulated cAMP was measured. In the secondary screen, IC50 of reversal of agonist activity was measured. Calculations of IC50 were performed by GraphPad Prism. Serotonin, BMY 7378, Buspirone, and 8-OH-DPAT were used as reference compounds.

T2 sequence (P31652 whole entry): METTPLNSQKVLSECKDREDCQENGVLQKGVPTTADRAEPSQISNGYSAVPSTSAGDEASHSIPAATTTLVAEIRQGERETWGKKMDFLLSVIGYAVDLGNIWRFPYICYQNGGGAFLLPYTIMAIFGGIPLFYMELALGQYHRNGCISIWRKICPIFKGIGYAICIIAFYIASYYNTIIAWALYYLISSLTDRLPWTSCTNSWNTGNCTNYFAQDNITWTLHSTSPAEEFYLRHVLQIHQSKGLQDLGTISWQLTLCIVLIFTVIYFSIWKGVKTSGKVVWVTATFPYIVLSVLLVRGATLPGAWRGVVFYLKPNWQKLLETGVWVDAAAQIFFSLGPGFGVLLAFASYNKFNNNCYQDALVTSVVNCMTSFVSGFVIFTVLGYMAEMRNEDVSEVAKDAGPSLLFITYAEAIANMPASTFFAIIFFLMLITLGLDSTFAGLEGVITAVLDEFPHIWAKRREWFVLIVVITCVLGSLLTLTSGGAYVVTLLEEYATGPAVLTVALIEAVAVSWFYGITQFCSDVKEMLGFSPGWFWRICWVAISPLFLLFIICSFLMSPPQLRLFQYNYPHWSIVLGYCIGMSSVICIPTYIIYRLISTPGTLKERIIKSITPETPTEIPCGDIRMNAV

SMILES	Ki [1] [µM]	IC50 [2] [µM]	IC50 [3] [µM]	melting point [°C]
Cc1ccc2c3c(ccc2n1)OC[C@H](CNCC1CCc2[nH]c4ccc(F)cc4c2C1)O3 (mixture of isomers) [Example 2, N-[(6-fluoro-2,3,4,9-tetrahydro-1H-carbazol-3-yl)methyl]-N-{[(2S)-8-methyl-2,3-dihydro[1,4]dioxino[2,3-f]quinolin-2-yl]methyl}amine]	0.00136	0.00526	0.0072	89 to 97
Cc1ccc2c3c(ccc2n1)OC[C@H](CNCC1CCc2c(c4cc(F)ccc4n2C)C1)O3 (mixture of isomers) [Example 6, N-[(6-fluoro-9-methyl-2,3,4,9-tetrahydro-1H-carbazol-3-yl)methyl]-N-{[(2S)-8-methyl-2,3-dihydro[1,4]dioxino[2,3-f]quinolin-2-yl]methyl}amine]	0.00365	0.00901	0.532	57 to 62
Cc1ccc2c3c(ccc2n1)OC[C@H](CNCC1CCc2c([nH]c4ccc(F)cc24)C1)O3 (stereo partly drawn) [Example 1, N-[(6-fluoro-2,3,4,9-tetrahydro-1H-carbazol-2-yl)methyl]-N-{[(2S)-8-methyl-2,3-dihydro[1,4]dioxino[2,3-f]quinolin-2-yl]methyl}amine]	0.00223	0.0494	0.0152	92 to 96
Cc1ccc2c3c(ccc2n1)OC[C@H](CNC[C@@H]1CCc2[nH]c4c(F)cc(F)cc4c2C1)O3.Cl.Cl [Example 9, N-{[(3R)-6,8-difluoro-2,3,4,9-tetrahydro-1H-carbazol-3-yl]methyl}-N-{[(2S)-8-methyl-2,3-dihydro[1,4]dioxino[2,3-f]quinolin-2-yl]methyl}amine dihydrochloride]	0.0037	0.0576	0.105	260 to 272
Cc1ccc2c3c(ccc2n1)OC[C@H](CNC[C@H]1CCc2[nH]c4c(F)cc(F)cc4c2C1)O3.Cl.Cl [Example 10, N-{[(3S)-6,8-difluoro-2,3,4,9-tetrahydro-1H-carbazol-3-yl]methyl}-N-{[(2S)-8-methyl-2,3-dihydro[1,4]dioxino[2,3-f]quinolin-2-yl]methyl}amine dihydrochloride]	0.00495	0.0113	0.249	267 to 275
Cc1ccc2c3c(ccc2n1)OC[C@H](CNCC1CCc2[nH]c4cccc(F)c4c2C1)O3.Cl.Cl (stereo partly drawn) [Example 11, [(5-fluoro-2,3,4,9-tetrahydro-1H-carbazol-3-yl)methyl]{[(2S)-8-methyl-2,3-dihydro[1,4]dioxino[2,3-f]quinolin-2-yl]methyl}amine dihydrochloride]	0.0167	0.124	0.0492	220 to 230
Cc1ccc2c3c(ccc2n1)OC[C@H](CNCC1CCc2c(c4c(F)cccc4n2C)C1)O3 (stereo partly drawn) [Example 12, N-[(5-fluoro-9-methyl-2,3,4,9-tetrahydro-1H-carbazol-3-yl)methyl]-N-{[(2S)-8-methyl-2,3-dihydro[1,4]dioxino[2,3-f]quinolin-2-yl]methyl}amine]	0.00054	0.18	0.0267	84 to 90
Cc1ccc2c3c(ccc2n1)OC[C@H](CNCC1CCc2[nH]c4cc(F)ccc4c2C1)O3 (stereo partly drawn) [Example 13, N-[(7-fluoro-2,3,4,9-tetrahydro-1H-carbazol-3-yl)methyl]-N-{[(2S)-8-methyl-2,3-dihydro[1,4]dioxino[2,3-f]quinolin-2-yl]methyl}amine]	0.0018	0.12	0.0221	89 to 97
Cc1ccc2c3c(ccc2n1)OC[C@H](CNC[C@H]1CCc2[nH]c4ccc(C#N)cc4c2C1)O3.Cl.Cl [Example 14, (3S)-3-[({[(2S)-8-methyl-2,3-dihydro[1,4]dioxino[2,3-f]quinolin-2-yl]methyl}amino)methyl]-2,3,4,9-tetrahydro-1H-carbazole-6-carbonitrile dihydrochloride]	0.0136	0.00361	0.0795	236 to 241
